Assay [1] concerns uterine endometrium of estrone-primed immature rabbits. Kind of assay: Clauberg assay (progestational activity, McPhail). The conditions noted are these: for Uterine Weight (X ± S.D.) / McPhail Index (0-4) (X ± S.D.): oral; for McPhail Index (0-4) (X ± S.D.): 0 none, 4 maximal. In kind it is in vivo, rabbit (New Zealand White).
Assay [2] concerns the target T1, Cytosol Progesterone Receptor of the Estrogen-primed Immature Rabbit Uterus (Oryctolagus cuniculus, UniProt P06186).
T1 construct: cytosol progesterone receptor of the estrogen-primed immature rabbit uterus; tissue Dutchland Laboratories, Inc., Denver, Pa (animals); host or cells: uterus cytosol of estradiol-treated immature female New Zealand White rabbits
T1 sequence (P06186 1-930): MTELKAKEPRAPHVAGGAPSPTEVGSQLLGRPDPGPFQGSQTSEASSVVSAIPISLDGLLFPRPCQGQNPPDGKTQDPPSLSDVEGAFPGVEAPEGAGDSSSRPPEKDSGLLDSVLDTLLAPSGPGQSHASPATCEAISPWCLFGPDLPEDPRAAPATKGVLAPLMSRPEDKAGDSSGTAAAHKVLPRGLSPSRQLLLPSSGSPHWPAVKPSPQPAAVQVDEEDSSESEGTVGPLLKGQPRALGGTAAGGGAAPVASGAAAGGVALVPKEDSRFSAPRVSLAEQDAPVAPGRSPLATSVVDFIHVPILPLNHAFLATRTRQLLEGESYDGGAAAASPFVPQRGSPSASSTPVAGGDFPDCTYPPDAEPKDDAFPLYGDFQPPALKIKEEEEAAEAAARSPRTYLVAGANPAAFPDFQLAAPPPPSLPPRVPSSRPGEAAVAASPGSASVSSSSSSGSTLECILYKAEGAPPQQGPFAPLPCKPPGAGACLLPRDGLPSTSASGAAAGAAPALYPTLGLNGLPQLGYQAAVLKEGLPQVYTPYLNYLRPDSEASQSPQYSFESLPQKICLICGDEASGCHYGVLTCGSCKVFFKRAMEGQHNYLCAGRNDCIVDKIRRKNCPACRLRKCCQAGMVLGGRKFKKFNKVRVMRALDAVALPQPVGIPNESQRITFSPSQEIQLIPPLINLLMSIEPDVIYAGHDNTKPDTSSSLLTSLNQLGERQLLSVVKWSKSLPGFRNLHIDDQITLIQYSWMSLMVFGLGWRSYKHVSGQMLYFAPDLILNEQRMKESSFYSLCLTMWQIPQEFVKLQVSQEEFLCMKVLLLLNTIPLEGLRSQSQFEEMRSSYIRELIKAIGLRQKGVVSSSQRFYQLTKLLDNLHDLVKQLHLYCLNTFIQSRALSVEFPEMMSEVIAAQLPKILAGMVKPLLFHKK
Kind of assay: Relative binding affinity for progesterone receptor (competition with 3H-progesterone). More on the design: species or system rabbit (New Zealand White). The conditions noted are these: 16-18 hour incubation, progesterone = 100. As to the method: RBA values recorded at 0° C. after short incubation times (e.g., 2 hr) mainly reflect differences in the association rate constants of the competing ligands, whereas those measured after long incubation times (e.g., 16 to 24 hr) and/or higher temperatures predominantly are influenced by differences in the dissociation rate constants of the competing ligands. RBA's determined after short incubation times primarily reflect the association of the competitor compared to the natural hormone. Conversely, RBA's measured after long incubation times reflect the dissociation rate of the competitor compared to the natural hormone.
The assay components are combined, allowed to equilibrate, and unbound radioactivity removed by charcoal adsorption.
Animal species. Immature female New Zealand White rabbits weighing 0.8 to 1.0 kg (Dutchland Laboratories, Inc., Denver, Pa).
Pretreatment. Subcutaneous treatment with 15 μg 17β-estradiol/0.6 ml sesame oil each morning (0830 to 0930 hr) for three days. Animals sacrificed 24 hr after final injection.
Tissue. Uterus; each uterus weighed about 1.0 g and two or three uteri were pooled for each assay.
Buffer. (A) 0.01M TES, pH 7.4, 1 mM EDTA, 0.012M thioglycerol and 30% glycerol for cytosol preparation and ^3 H-steroid, unlabeled hormone and compound solutions. (B) 0.01M TES, pH 7.4, 1 mM EDTA and 0.012M thioglycerol for charcoal solution.
Homogenization. Five or six 5-second bursts with 30 second cooling periods between bursts using Brinkman Polytron Pt. 10 at 3.5 rheostat setting.
Temperature. 0°-4° C. for all steps.
Centrifugation. 45,000 rpm for 1 hr, 50 Ti rotor, Beckman L8-80 ultracentrifuge.
Incubation. 16-18 hr at 4°-6° C.
Concentations. 1×10^-10 M to 1×10^-5 M (7 concentrations).
Method. Charcoal adsorption method used to remove unbound radioactivity. Five-tenths ml of dextran-coated charcoal (0.5% Norit A and 0.05% dextran T-70) added to all tubes except total radioactivity tubes (0.5 ml buffer [B] added), tubes vortexed 3-5 sec, allowed to sit for 10 minutes and centrifuged 10 minutes at 2000 rpm in Beckman TJ-6 centrifuge at 0°-4° C.
Data Interpretation. […] The relative binding affinity (RBA) of each compound was calculated by using the following equation. [formula] where

Assay [3] has as its system androgen target organs of castrate immature male rats. Kind of assay: Anti-androgenic activity in the castrate immature rat assay. The conditions noted are these: for anti-androgenic activity, in words: with testosterone sc 400 μg/rat/day, doses up to 400 μg/rat/day (progestagen oral; progesterone sc). In kind it is in vivo. The method, then: The oral anti-androgenic activity of 6-methyl-6-dehydro-17α-ethynylprogesterone was evaluated in the castrate immature male rat assay [Lerner et al., Proc. Soc. […] The assay is briefly described in the footnotes to Table 11.
*This assay employs castrate immature rats. For methods refer to Lerner,
L. J., A. Bianchi and A. Borman, Proc. Soc.
**Groups of rats (7/group) were given daily injections of 0.3 ml sesame
oil (control) or compound (in 0.3 ml sesame oil) for 7 days. Some groups
also concurrently received progestational compounds by the sc or oral
route of administration in order to evaluate antiandrogenic activity. One
day after the final doses, the animals were sacrificed and the androgen
target organs indicated were weighed.
***Statistically significant (p < 0.05) lower organ weights versus the
testosterone, sc, (400 μg/rat/day) group as determined by Analysis of
Variance coupled with Duncan's Multiple Range Test.

Assay [4] has as its system endometrium of estrogen-primed ovariectomized or climacteric women. The conditions noted are these: oral; cited from earlier work.
In assay [5] the test system is estrogen-primed immature rabbits. As to conditions: cited from earlier work.
The conditions of assay [6]: general knowledge; cited from earlier work.
The mark [7] stands for this setting: oral 25 μg/rat daily + testosterone sc 400.
[8] abbreviates: oral 100 μg/rat daily + testosterone sc 400.
[9] abbreviates: oral 400 μg/rat daily + testosterone sc 400.

The structures appear in SMILES notation. “Also recorded” adds a separate entry of the source. Where two headings read alike, the source gives them in different places.

`C#C[C@]1(C(C)=O)CC[C@H]2[C@@H]3C=C(C)C4=CC(=O)CC[C@]4(C)[C@H]3CC[C@@]21C` [17α-Ethynyl-6-methylpregna-4,6-diene-3,20-dione]: the “potency relative to levonorgestrel, in words” value in assay [1] (both given orally) is “equipotent with levonorgestrel”. The “progestational potency relative to subcutaneous progesterone, in words” value in assay [1] (compound given orally, progesterone sc) is “more than eight times as potent as progesterone administered subcutaneously”. Moreover, the “Uterine Weight (X ± S.D.)” value in assay [1] (5 μg/rabbit daily) came out at 0.99 ± 0.34 g; in assay [1] (10 μg/rabbit daily), 1.11 ± 0.23 g; in assay [1] (25 μg/rabbit daily) it was 2.93 ± 1.33 g; in assay [1] (50 μg/rabbit daily), 3.59 ± 0.43 g. Besides, the “McPhail Index (0-4) (X ± S.D.)” value in assay [1] (5 μg/rabbit daily) stood at 0.00 ± 0.0; in assay [1] (10 μg/rabbit daily), 0.17 ± 0.12; in assay [1] (25 μg/rabbit daily) it was 3.33 ± 0.62; in assay [1] (50 μg/rabbit daily), 4.00 ± 0.00. In assay [2] (Assay 6), this compound registered an RBA of 104%. The “Levator Ani weight (X ± S.D.)” value was 63 ± 13 mg in assay [3] (setting [7]), 68 ± 13 mg in assay [3] (setting [8]) and 66 ± 9 mg in assay [3] (setting [9]). In addition, the “Seminal Vesicles weight (X ± S.D.)” value in assay [3] (setting [7]) is reported as 141 ± 43 mg; in assay [3] (setting [8]), 141 ± 9 mg; in assay [3] (setting [9]), 129 ± 37 mg. Besides, the “Ventral Prostate weight (X ± S.D.)” value in assay [3] (setting [7]) is listed as 61 ± 13 mg; in assay [3] (setting [8]), 63 ± 25 mg; in assay [3] (setting [9]) it was 43 ± 12 mg. For the same compound, the “anti-androgenic activity, in words” value in assay [3] (listed as 6-methyl-6-dehydro-17α-ethynylprogesterone) was “significant depression of ventral prostate weight; also recorded: Seminal vesicle weight also was depressed at the same dose level, but the decrease was not statistically significant”.

On to `C#C[C@]1(O)CC[C@H]2[C@@H]3CCC4=CC(=O)CC[C@@H]4[C@H]3CC[C@@]21CC` [Levonorgestrel, reference compound], for which, in assay [4], the “Threshold or effective dose, Kaufman Assay” value was 6 mg/cycle. Besides, the “Threshold or effective dose, Clauberg Assay” value in assay [5] (oral) is recorded as 0.03 mg/animal; in assay [5] (s.c. (i.m.)) it was 0.01-0.03 mg/animal. The “Uterine Weight (X ± S.D.)” value in assay [1] (5 μg/rabbit daily) is reported as 1.30 ± 0.49 g; in assay [1] (10 μg/rabbit daily), 0.86 ± 0.04 g; in assay [1] (25 μg/rabbit daily), 2.59 ± 0.81 g; in assay [1] (50 μg/rabbit daily), 1.95 ± 0.41 g; in assay [1] (100 μg/rabbit daily), 3.57 ± 1.08 g; in assay [1] (200 μg/rabbit daily), 2.80 ± 0.14 g. The “Uterine Weight (X ± S.D.)” value in assay [1] (400 μg/rabbit daily) was 2.67 ± 0.80 g. Further, the “McPhail Index (0-4) (X ± S.D.)” value in assay [1] (5 μg/rabbit daily) was 0.08 ± 0.12; in assay [1] (10 μg/rabbit daily), 0.04 ± 0.06; in assay [1] (25 μg/rabbit daily) it was 3.71 ± 0.16; in assay [1] (50 μg/rabbit daily) it was 2.92 ± 0.42; in assay [1] (100 μg/rabbit daily), 3.90 ± 0.12; in assay [1] (200 μg/rabbit daily) it was 4.00 ± 0.00. Also, the “McPhail Index (0-4) (X ± S.D.)” value in assay [1] (400 μg/rabbit daily) was found to be 3.70 ± 0.47. This compound gave an RBA in assay [2] (Assay 1, 5α-dihydro-17α-ethynyl: lot 1) of 111%.

As to `CC(=O)O[C@]1(C(C)=O)CC[C@H]2[C@@H]3C=C(C)C4=CC(=O)CC[C@]4(C)[C@H]3CC[C@@]21C` [Megestrol Acetate, 6-Methyl-6-dehydro-17α-acetoxyprogesterone], in assay [4], the “Threshold or effective dose, Kaufman Assay” value is on record as 35-50 mg/cycle. Besides, the “Threshold or effective dose, Clauberg Assay” value in assay [5] (oral) is given as 0.03 mg/animal; in assay [5] (s.c. (i.m.)), 0.01-0.03 mg/animal. Further, in assay [6], the “oral progestational activity, in words” value is “potent orally active progestational compounds”. Also, the entries for the “Levator Ani weight (X ± S.D.)” value in assay [3] (setting [7]), in assay [3] (setting [8]) and in assay [3] (setting [9]) were 50 ± 8 mg, 55 ± 12 mg and 65 ± 12 mg, respectively. Further, the “Seminal Vesicles weight (X ± S.D.)” value in assay [3] (setting [7]) was determined as 125 ± 23 mg; in assay [3] (setting [8]), 128 ± 36 mg; in assay [3] (setting [9]) it was 120 ± 21 mg. The “Ventral Prostate weight (X ± S.D.)” value in assay [3] (setting [7]) is 42 ± 20 mg; in assay [3] (setting [8]), 54 ± 13 mg; in assay [3] (setting [9]), 48 ± 15 mg. In assay [3], the “anti-androgenic activity, in words” value is “significant anti-androgenic activity”.

Take `C#C[C@]1(O)CC[C@H]2[C@@H]3CCC4=CC(=O)CC[C@@H]4[C@H]3CC[C@@]21C` [Norethisterone]: the “Threshold or effective dose, Kaufman Assay” value in assay [4] was 100-150 mg/cycle. In addition, the “Threshold or effective dose, Clauberg Assay” value in assay [5] (s.c. (i.m.)) is 0.1 mg/animal.

In the case of `C#C[C@]1(O)CC[C@H]2[C@@H]3CCC4=C(CCC(=O)C4)[C@H]3CC[C@@]21C` [Norethynodrel], the “Threshold or effective dose, Kaufman Assay” value in assay [4] was 150-200 mg/cycle. The “Threshold or effective dose, Clauberg Assay” value in assay [5] (oral) and in assay [5] (s.c. (i.m.)) was 0.3 mg/animal each time.

The values are drawn from patent US4512986A, “Progrestationally active steroids” (priority 1983, dated 1985).
